Measurements reported in patent US12428402B2, “Resmetirom crystal, preparation method for same, and uses thereof” (CRYSTAL PHARMACEUTICAL (SUZHOU) CO., LTD., priority 2019, dated 2025).
≈ marks a conversion by molar mass, not a printed value. Where “and” joins values, the source holds several entries; their conditions need not be identical. Equal entries are not always repeated. Entries after “also recorded” stand apart in the source; their conditions may differ.

Tests used:
Format in all cases: physicochemical
[1] = Hygroscicity by dynamic vapor sorption (DVS); conditions: for hygroscopicity class / weight gain: 25° C./80% RH; for hygroscopicity class: Chinese Pharmacopoeia definition; for weight gain: DVS; for crystalline state before and after DVS: cycle of 0-95% RH
Description: Dynamic Vapor Sorption (DVS) was measured via an SMS (Surface Measurement Systems Ltd.) intrinsic DVS instrument. Typical Parameters for DVS test are as follows: • Temperature: 25° C. • Gas and flow rate: N2, 200 mL/min • RH range: 0% RH to 95% RH
Dynamic vapor sorption (DVS) analyzer was applied to test hygroscopicity of Form CSIV and Form CSV with certain amount of samples. The weight gains at each relative humidity were recorded in a cycle of 0-95% RH. […] The weight gain of Form CSV under 25° C./80% RH is 0.13%. […] The DVS curve of Form CSIV and Form CSV are shown in FIG. 9 and FIG. 10, respectively.
Description and definition of hygroscopicity (general notice 9103 drug hygroscopicity test guidelines in 2020 edition of Chinese Pharmacopoeia, test at 25° C.±1° C., 80% RH±2% RH. The definition of hygroscopicity in the 9th European Pharmacopoeia 5.11 is consistent with the Chinese Pharmacopoeia). • deliquescent: Sufficient water is absorbed to form a solution; • very hygroscopic: Increase in mass is equal to or greater than 15%; • hygroscopic: Increase in mass is less than 15% and equal to or greater than 2%; • slightly hygroscopic: Increase in mass is less than 2% and equal to or greater than 0.2%. • non hygroscopic or almost non hygroscopic: Increase in mass is less than 0.2%.

[2] = Physical stability upon grinding (XRPD); conditions: ground manually for 5 minutes in a mortar
Description: Form CSV and Form I were grounded manually for 5 minutes in a mortar. Crystalline forms before and after grinding were checked by XRPD. […] Compared with Form I, Form CSV has better physical stability upon grinding.

[3] = Kinetic solubility in SGF; conditions: for 1 hour Concentration: equilibrated 1 h
Description: When solubility test is used to predict the in vivo performance of a drug, it is critical to simulate in vivo conditions as closely as possible. SGF can be used to simulate the condition in vivo and predict the effects of eating, thus solubility in this medium is closer to that in vivo.
Approximately 5-20 mg of Form CSIV and 5-20 mg Form CSV of the present disclosure were suspended into 2.0 mL of SGF to get suspensions. After equilibrated for 1 h and 24 h, concentrations (μg/mL) of these solutions were measured by UPLC.

[4] = Physical and chemical stability on storage (XRPD, HPLC)
Description: A certain amount of Form CSIV of the present disclosure was sealed up and stored under different conditions of 25° C./60% RH, 40° C./75% RH, and 60° C./75% RH. Crystalline form and chemical purity were checked by XRPD and HPLC, respectively.
A certain amount of Form CSV of the present disclosure was stored under different conditions of 40° C./75% RH and 60° C./75% RH in open and sealed dishes. Crystalline form and chemical purity were checked by XRPD and HPLC, respectively.

[5] = Compressibility (manual tablet press, tensile strength); conditions: for Diameter / Hardness / Thickness: 80 mg, φ6 mm round tooling, 10 kN, 24 h at room temperature; for Diameter / Hardness / Thickness / Tensile strength: tablets 1 and 2; for Average tensile strength / Tensile strength: T=2H/πDL
Description: ENERPAC manual tablet press was used for compression. 80 mg of Form CSIV and 80 mg of Form I were weighed and added into the dies of a φ6 mm round tooling, compressed at 10 kN manually, then stored at room temperature for 24 h. Diameter (D) and thickness (L) were tested with caliper. When elastic recovery is complete, hardness (H) was tested with an intelligent tablet hardness tester. Tensile strength of the powder was calculated with the following formula: T=2H/πDL. Under a certain force, the greater the tensile strength, the better the compressibility.

[6] = 40° C./75% RH (open), one month
[7] = 40° C./75% RH (sealed), one month
[8] = 60° C./75% RH (sealed), one week

SMILES	hygroscopicity class [1]	weight gain [1]	crystalline state before and after DVS [1]	crystalline state after grinding [2]	1 hour Concentration ([3]; UPLC)	solubility relative to that of Form I ([3]; equilibrated 1 hour)	solubility relative to that of Form I ([3]; equilibrated 24 hours)	Crystalline form ([4]; Initial)	Diameter [5]	Hardness [5]	Thickness [5]	Average tensile strength ([5]; compressed at 10 kN)	Tensile strength ([5]; compressed at 10 kN)	also measured
CC(C)c1cc(Oc2c(Cl)cc(-n3nc(C#N)c(=O)[nH]c3=O)cc2Cl)n[nH]c1=O [Form CSV, 2-(3,5-dichloro-4-((5-isopropyl-6-oxo-1,6-dihydropyridazin-3-yl)oxy)phenyl)-3,5-dioxo-2,3,4,5-tetrahydro-1,2,4-triazine-6-carbonitrile]	non hygroscopic or almost non-hygroscopic	0.13%	remains unchanged before and after DVS	does not change before and after grinding; also recorded: doesn't change after grinding	7.8 µg/mL	7.1 times	8.7 times	Form CSV						24 hours Concentration ([3]; equilibrated 24 h, UPLC): 9.6 µg/mL; Crystalline form [4, 6]: Form CSV; Purity [4, 6]: 99.81%; Crystalline form [4, 7]: Form CSV; Purity [4, 7]: 99.85%; chemical purity during storage ([4]; 40° C./75% RH one month, 60° C./75% RH one week): above 99.8%; time for which the form is stable ([4]; 40° C./75% RH open and sealed dishes, in words): at least one months; time for which crystalline state doesn't change ([4]; 40° C./75% RH sealed, in words): at least one month; Crystalline form ([4]; 60° C./75% RH (open), one week): Form CSV; Purity ([4]; 60° C./75% RH (open), one week): 99.86%; Crystalline form [4, 8]: Form CSV; Purity [4, 8]: 99.87%; time for which the form is stable / crystalline form doesn't change ([4]; 60° C./75% RH open and sealed, in words): at least one week
CC(C)c1cc(Oc2c(Cl)cc(-n3nc(C#N)c(=O)[nH]c3=O)cc2Cl)n[nH]c1=O [Form I, 2-(3,5-dichloro-4-((5-isopropyl-6-oxo-1,6-dihydropyridazin-3-yl)oxy)phenyl)-3,5-dioxo-2,3,4,5-tetrahydro-1,2,4-triazine-6-carbonitrile, reference compound]				almost transform into amorphous after grinding; also recorded: transforms into amorphous after grinding					6.01 mm and 6.11 mm	8.7 kg and 7.9 kg	2.11 mm and 2.00 mm	0.43 MPa	0.44 MPa and 0.41 MPa	
CC(C)c1cc(Oc2c(Cl)cc(-n3nc(C#N)c(=O)[nH]c3=O)cc2Cl)n[nH]c1=O [Form CSIV, 2-(3,5-dichloro-4-((5-isopropyl-6-oxo-1,6-dihydropyridazin-3-yl)oxy)phenyl)-3,5-dioxo-2,3,4,5-tetrahydro-1,2,4-triazine-6-carbonitrile]	slightly hygroscopic (Increase in mass is less than 2% and equal to or greater than 0.2%)	0.58%	remains unchanged before and after DVS		11.7 µg/mL	10.6 times	5.0 times	Form CSIV	6.03 mm and 6.04 mm	28.3 kg and 27.7 kg	2.12 mm	1.40 MPa	1.41 MPa and 1.38 MPa	solubility thermodynamic at 24 h ([3]; simulated gastric fluid, thermodynamic from solid, equilibrated 24 h, UPLC, read-out: 24 hours Concentration): 5.5 µg/mL (≈ 12.6 µM); time for which the form is stable / crystalline state doesn't change ([4]; 25° C./60% RH sealed): at least 6 months; Crystalline form ([4]; 25° C./60% RH sealed, 6 months): Form CSIV; time for which the form is stable / crystalline state doesn't change ([4]; 40° C./75% RH sealed): at least 6 months; Crystalline form ([4]; 40° C./75% RH sealed, 6 months): Form CSIV; Purity ([4]; 40° C./75% RH sealed, 6 months): 99.76%; time for which crystalline state doesn't change ([4]; 60° C./75% RH sealed): at least 1 month; time for which the form is stable ([4]; 60° C./75% RH sealed, in words): at least one month; Crystalline form ([4]; 60° C./75% RH sealed, one month): Form CSIV; Purity ([4]; Initial): 99.80%; crystalline state before and after tableting ([5]; compressed at 10 kN, XRPD): remains unchanged before and after tableting
